Laboratory results as given in patent publication US11285127B2, “Compositions and methods for lowering triglycerides without raising LDL-C levels in a subject on concomitant statin therapy” (Amarin Pharmaceuticals Ireland Limited, priority 2013, dated 2022).

System: patients with fasting triglyceride levels >200 mg/dl and <500 mg/dl despite statin therapy
Assay: 12-week placebo-controlled study of >96% E-EPA: fasting triglycerides (TG), incl. TG goal
Type: in vivo, human
Settings: for Median reduction in triglycerides compared to baseline / TG Median % chg from BL / TG, Diff from pbo (Hodges-Lehmann median difference) / TG, EOT (Week 12 endpoint) median / TG Diff from pbo (median % chg, Hodges-Lehmann) / TG EOT Median / Fasting Triglycerides, Week 12 EP Median (IQR): MITT; for Median reduction in triglycerides compared to baseline / Percentage Achieving TG Goal (less than 150 mg/dL): Week 12; for Fasting Triglycerides, Percent change from Baseline, Median (IQR) / Fasting Triglycerides, Difference from placebo, Estimated median: Week 12, MITT; for Fasting Triglycerides, Difference from placebo, Estimated median: difference in percent change
Procedure: A multi-center, placebo-controlled, randomized, double-blind, 12-week study was performed to evaluate the efficacy and safety of >96% E-EPA in patients with fasting triglyceride levels >200 mg/dl and <500 mg/dl despite statin therapy (the mean of two qualifying entry values needed to be >185 mg/dl and at least one of the values needed to be >200 mg/dl). The primary objective of the study was to determine the efficacy of >96% E-EPA 2 g daily and 4 g daily, compared to placebo, in lowering fasting TG levels in patients with high risk for cardiovascular disease and with fasting TG levels 200 mg/dl and <500 mg/dl, despite treatment to LDL-C goal on statin therapy. The population for this study was men and women >18 years of age with a body mass index ≤45 kg/m^2 with fasting TG levels greater than or equal to 200 mg/dl and less than 500 mg/dl and on a stable does of statin therapy (with or without ezetimibe). The statin was atorvostatin, rosuvastatin or simvastatin. The dose of statin must have been stable for ≥4 weeks prior to the LDL-C/TG baseline qualifying measurement for randomization. The statin dose was optimized such that the patients are at their LDL-C goal at the LDL-C/TG baseline qualifying measurements. The same statin at the same dose was continued until the study ended. Approximately 702 patients were randomized at approximately 80 centers in the U.S. The study was a 18- to 20-week, Phase 3, multi-center study consisting of 2 study periods: (1) A 6- to 8-week screening period that included a diet and lifestyle stabilization, a non-statin lipid-altering treatment washout, and an LDL-C and TG qualifying period and (2) A 12-week, double-blind, randomized, placebo-controlled treatment period. After confirmation of qualifying fasting LDL-C and TG values, eligible patients entered a 12-week, randomized, double-blind treatment period. At Visit 4 (Week 0), patients were randomly assigned to 1 of the following treatment groups: • >96% E-EPA 2 g daily, • >96% E-EPA 4 g daily, or • Placebo. During the double-blind treatment period, patients were to take 2 capsules (>96% E-EPA or matching placebo) in the morning and 2 capsules in the evening for a total of 4 capsules per day. • Patients in the >96% E-EPA 2 g/day treatment group received 1>96% E-EPA 1 g capsule and 1 matching placebo capsule in the morning and in the evening. • Patients in the >96% E-EPA 4 g/day treatment group received 2>96% E-EPA 1 g capsules in the morning and evening. The primary efficacy variable for the double-blind treatment period was percent change in TG from baseline to Week 12 endpoint. The secondary efficacy variables for the double-blind treatment period included the following: • Percent changes in total cholesterol (TC), high-density lipoprotein cholesterol (HDL-C), LDL-C, calculated non-HDL-C, and very low-density lipoprotein cholesterol (VLDL-C) from baseline to Week 12 endpoint; • Percent change in very low-density lipoprotein TG from baseline to Week 12; • Percent changes in apolipoprotein A-I (Apo A-1), apolipoprotein B (Apo B), and Apo A-1/Apo B ratio from baseline to Week 12; • Percent changes in lipoprotein(a) from baseline to Week 12; • Percent changes in LDL particle number and size, measured by nuclear magnetic resonance, from baseline to Week 12; • Percent change in remnant-like particle cholesterol from baseline to Week 12; • Percent change in oxidized LDL from baseline to Week 12; • Changes in FPG and HbA1c from baseline to Week 12; • Change in insulin resistance, as assessed by the homeostasis model index insulin resistance, from baseline to Week 12; • Percent change in lipoprotein associated phospholipase A2 (Lp-PLA2) from baseline to Week 12; • Change in intracellular adhesion molecule-1 from baseline to Week 12; • Change in interleukin-2 from baseline to Week 12; • Change in plasminogen activator inhibitor-1 from baseline to Week 12. […]

[1] = AMR 101 2 g + statin, Atorva subgroup
[2] = AMR 101 2 g + statin, Rosuva subgroup
[3] = AMR 101 2 g + statin, Simva subgroup
[4] = AMR 101 2 g + statin, Statin Potency High
[5] = AMR 101 2 g + statin, Statin Potency Low
[6] = AMR 101 2 g + statin, Statin Potency Medium
[7] = AMR 101 2 g + statin, Diabetes No, Week 12 endpoint
[8] = AMR 101 2 g + statin, Diabetes Yes, Week 12 endpoint
[9] = AMR 101 2 g + statin, Non-statin Washout No, Week 12 endpoint
[10] = AMR 101 2 g + statin, Non-statin Washout Yes, Week 12 endpoint
[11] = AMR 101 2 g + statin, baseline TG tertile Highest (≥289.5 mg/dL), Week 12 endpoint
[12] = AMR 101 2 g + statin, baseline TG tertile Lowest (<230.5 mg/dL), Week 12 endpoint
[13] = AMR 101 2 g + statin, baseline TG tertile Middle (230.5 to <289.5 mg/dL), Week 12 endpoint
[14] = AMR 101 4 g + statin, Atorva subgroup
[15] = AMR 101 4 g + statin, Rosuva subgroup
[16] = AMR 101 4 g + statin, Simva subgroup
[17] = AMR 101 4 g + statin, Statin Potency High
[18] = AMR 101 4 g + statin, Statin Potency Low
[19] = AMR 101 4 g + statin, Statin Potency Medium
[20] = AMR 101 4 g + statin, Diabetes No, Week 12 endpoint
[21] = AMR 101 4 g + statin, Diabetes Yes, Week 12 endpoint
[22] = AMR 101 4 g + statin, Non-statin Washout No, Week 12 endpoint
[23] = AMR 101 4 g + statin, Non-statin Washout Yes, Week 12 endpoint
[24] = AMR 101 4 g + statin, baseline TG tertile Highest (≥289.5 mg/dL), Week 12 endpoint
[25] = AMR 101 4 g + statin, baseline TG tertile Lowest (<230.5 mg/dL), Week 12 endpoint
[26] = AMR 101 4 g + statin, baseline TG tertile Middle (230.5 to <289.5 mg/dL), Week 12 endpoint
[27] = IPE 4 g/day (n = 216), 12 weeks, patients with lipoprotein data

CC/C=C\C/C=C\C/C=C\C/C=C\C/C=C\CCCC(=O)OCC [AMR101, ethyl eicosapentaenoate]
Median reduction in triglycerides compared to baseline (2 g/day): 2.6%
Percentage Achieving TG Goal (less than 150 mg/dL) (2 g/day): 3.8%
Subjects who Achieved TG Goal (less than 150 mg/dL), number (2 g/day, Week 12, total n 234): 9
Median reduction in triglycerides compared to baseline (4 g/day): 17.5%
Percentage Achieving TG Goal (less than 150 mg/dL) (4 g/day): 7.1%
Subjects who Achieved TG Goal (less than 150 mg/dL), number (4 g/day, Week 12, total n 226): 16
TG Median % chg from BL [1]: −0.5%
TG, Diff from pbo (Hodges-Lehmann median difference) [1]: −2.4
TG, EOT (Week 12 endpoint) median [1]: 245.0
TG Median % chg from BL [2]: −5.8%
TG, Diff from pbo (Hodges-Lehmann median difference) [2]: −5.7
TG, EOT (Week 12 endpoint) median [2]: 252.5
TG Median % chg from BL [3]: −8.8%
TG, Diff from pbo (Hodges-Lehmann median difference) [3]: −14.3
TG, EOT (Week 12 endpoint) median [3]: 241.3
TG Median % chg from BL [4]: −5.8%
TG, Diff from pbo (Hodges-Lehmann median difference) [4]: −11.7
TG, EOT (Week 12 endpoint) median [4]: 239.5
TG Median % chg from BL [5]: −18.8%
TG, Diff from pbo (Hodges-Lehmann median difference) [5]: −13.8
TG, EOT (Week 12 endpoint) median [5]: 208.5
TG Median % chg from BL [6]: −5.3%
TG, Diff from pbo (Hodges-Lehmann median difference) [6]: −8.7
TG, EOT (Week 12 endpoint) median [6]: 248.0
TG Diff from pbo (median % chg, Hodges-Lehmann) [7]: −10.8%
TG EOT Median [7]: 245.0 mg/dL
TG Median % chg from BL [7]: −12.1%
TG Diff from pbo (median % chg, Hodges-Lehmann) [8]: −9.8%
TG EOT Median [8]: 244.0 mg/dL
TG Median % chg from BL [8]: −1.5%
TG Diff from pbo (median % chg, Hodges-Lehmann) [9]: −10.7%
TG EOT Median [9]: 229.0 mg/dL
TG Median % chg from BL [9]: −7.9%
TG Diff from pbo (median % chg, Hodges-Lehmann) [10]: −9.5%
TG EOT Median [10]: 249.5 mg/dL
TG Median % chg from BL [10]: −4.2%
TG Diff from pbo (median % chg, Hodges-Lehmann) [11]: −16.9%
TG EOT Median [11]: 320.3 mg/dL
TG Median % chg from BL [11]: −8.7%
TG Diff from pbo (median % chg, Hodges-Lehmann) [12]: −4.1%
TG EOT Median [12]: 207.8 mg/dL
TG Median % chg from BL [12]: 0.7%
TG Diff from pbo (median % chg, Hodges-Lehmann) [13]: −9.9%
TG EOT Median [13]: 228.3 mg/dL
TG Median % chg from BL [13]: −13.0%
Fasting Triglycerides, Week 12 EP Median (IQR) (AMR101 2 g/d + statin, n 234): 244.3 (117.0)
Fasting Triglycerides, Percent change from Baseline, Median (IQR) (AMR101 2g/d + statin): −5.6 (34.5) %
Fasting Triglycerides, Difference from placebo, Estimated median (AMR101 2g/d + statin): −10.1
TG Median % chg from BL [14]: −23.9%
TG, Diff from pbo (Hodges-Lehmann median difference) [14]: −28.4
TG, EOT (Week 12 endpoint) median [14]: 216.0
TG Median % chg from BL [15]: −20.5%
TG, Diff from pbo (Hodges-Lehmann median difference) [15]: −23.4
TG, EOT (Week 12 endpoint) median [15]: 204.0
TG Median % chg from BL [16]: −14.7%
TG, Diff from pbo (Hodges-Lehmann median difference) [16]: −18.8
TG, EOT (Week 12 endpoint) median [16]: 228.0
TG Median % chg from BL [17]: −20.2%
TG, Diff from pbo (Hodges-Lehmann median difference) [17]: −26.0
TG, EOT (Week 12 endpoint) median [17]: 214.5
TG Median % chg from BL [18]: 0.5%
TG, Diff from pbo (Hodges-Lehmann median difference) [18]: −13.1
TG, EOT (Week 12 endpoint) median [18]: 256.8
TG Median % chg from BL [19]: −15.8%
TG, Diff from pbo (Hodges-Lehmann median difference) [19]: −20.1
TG, EOT (Week 12 endpoint) median [19]: 221.0
TG Diff from pbo (median % chg, Hodges-Lehmann) [20]: −16.8%
TG EOT Median [20]: 234.5 mg/dL
TG Median % chg from BL [20]: −15.0%
TG Diff from pbo (median % chg, Hodges-Lehmann) [21]: −23.2%
TG EOT Median [21]: 216.5 mg/dL
TG Median % chg from BL [21]: −18.7%
TG Diff from pbo (median % chg, Hodges-Lehmann) [22]: −20.8%
TG EOT Median [22]: 220.0 mg/dL
TG Median % chg from BL [22]: −16.7%
TG Diff from pbo (median % chg, Hodges-Lehmann) [23]: −22.4%
TG EOT Median [23]: 220.8 mg/dL
TG Median % chg from BL [23]: −17.7%
TG Diff from pbo (median % chg, Hodges-Lehmann) [24]: −31.1%
TG EOT Median [24]: 260.0 mg/dL
TG Median % chg from BL [24]: −21.8%
TG Diff from pbo (median % chg, Hodges-Lehmann) [25]: −14.4%
TG EOT Median [25]: 183.5 mg/dL
TG Median % chg from BL [25]: −10.9%
TG Diff from pbo (median % chg, Hodges-Lehmann) [26]: −17.9%
TG EOT Median [26]: 205.0 mg/dL
TG Median % chg from BL [26]: −19.3%
Fasting Triglycerides, Week 12 EP Median (IQR) (AMR101 4 g/d + statin, n 226): 220.8 (92.0)
Fasting Triglycerides, Percent change from Baseline, Median (IQR) (AMR101 4g/d + statin): −17.5 (31.0) %
Fasting Triglycerides, Difference from placebo, Estimated median (AMR101 4g/d + statin): −21.5
TG, Change From Baseline, % (median) [27]: −17.5%
TG, End of Treatment (median) [27]: 219.3 mg/dL
TG, Median Change From Baseline IPE 4 g/day vs Placebo, % (IPE 4 g/day vs placebo, 12 weeks, Hodges-Lehmann median): −21.1%
